Data published in patent publication US4180669A, “2-(N-phenethyl-4-piperidino)-5-pentyl resorcinol” (Abbott Laboratories, priority 1978, dated 1979).
Counter-ions that a name gives are not always drawn. Like-named read-outs stand apart in the source and are kept apart here.

Assays:
[1] = test system: pylorous ligated rats; test: Antisecretory activity in the pylorous ligated rat model; type: in vivo, male Sprague-Dawley rats; settings: for inhibition in vivo at 50 mg/kg: Rattus norvegicus, 4 h
Experimental: To determine the antisecretory activity of the present compounds, the compounds were tested for such activity in pylorous ligated rats. In this test, male Sprague-Dawley rats weighing 170-190 g. were fasted for 24 hours. Water was allowed ad libitum. All groups were comprised of six rats. […] Water was withheld after drug administration. Ligation of the pyrloric sphincter was performed under ether anesthesia, and four hours after ligation the animals were sacrificed with CO2. The stomach was dissected out and the contents were expelled into a graduated centrifuge tube. The samples were centrifuged and the volume, less debris, was measured. Sample aliquots were titrated with 0.05 N NaOH to determine acid concentration. Pepsin activity was determined on an auto analyzer using hemoglobin as the substrate by the method of Anson. Group means for volume, acid and pepsin concentrations, and pepsin outputs were compared for statistically significant differences from control means by Student's t-test.

[2] = test system: pentagastrin stimulated fistula dog; test: Antisecretory activity in the pentagastrin stimulated fistula dog; type: in vivo, female beagle dogs; settings: pentagastrin 10 μg/kg s.c., 2 hours
Experimental: In addition to the test described in Example XXXVI, some of the present compounds were tested in dogs.
In this test, female beagle dogs weighing 5.5-7.5 kg. were surgically provided with gastric fistulas at the ventral wall of the stomach near the greater curvature and just proximal to the antrum. The animals were allowed to recover for three to four weeks before handling and training were begun, and experiments were started six to eight weeks after surgery. The individually housed dogs were fasted for 20-24 hours before use. Water was allowed ad lib. Treatment selection was determined by a randomized schedule which included control groups given vehicle (0.5% Methocel® solution) only. During the test period each dog was secured in a standing position with one collar around the neck and another around the lower abdomen. Before drug administration, the cannula plug of the gastric fistula was removed and the pH of the gastric juice was checked. Animals with acidic gastric juice (pH 4.0 or less) were replaced with alternate dogs. Then the drug was administered intragastrically […] through a special gastric cannula instillation plug, 30 minutes prior to subcutaneous administration of a gastric stimulant (pentagastrin, 10 μg/kg).
For each dog, collection of gastric juice was begun immediately after administration of the gastric stimulant and continued for two hours. The volumes of collected gastric juices were measured. The acid concentration and pepsin activity were determined for all samples by automated procedures. For the dog data, as recorded in Table 2, below, group means for volume (ml), acid concentration (acidity, mEq/l), pepsin concentration (mg/ml), acid output (mEq/2 hr), and pepsin output (mg/2 hr) were compared with the respective control means using Student's t-test. The results were also expressed as percent inhibition of the respective individual mean control values.
Group means for volume, acid and pepsin concentrations, acid and pepsin outputs were compared for statistically significant differences from control means by Student's t-test.

[3] = oral dose 50 mg/kg, negative sign means stimulated

Compound: 2-(1,2,3,4-Tetrahydro-4-pyridyl)-3-methoxy-5-(1,2-dimethylheptyl)phenol hydrochloride [XXVIII]
- Percent inhibition of acid output ([1]; oral dose 12.5 mg/kg): 7.5%
- Percent inhibition of acidity ([1]; oral dose 12.5 mg/kg): 19.2%
- Percent inhibition of pepsin output ([1]; oral dose 12.5 mg/kg): 10.9%
- Percent inhibition of volume ([1]; oral dose 12.5 mg/kg): -14.5%
- Percent inhibition of pepsin ([1]; oral dose 12.5 mg/kg, negative sign means stimulated): 22.5%
- Percent inhibition of acid output ([1]; oral dose 25 mg/kg): 13.1%
- Percent inhibition of acidity ([1]; oral dose 25 mg/kg): 27.2%
- Percent inhibition of pepsin output ([1]; oral dose 25 mg/kg): 0.8%
- Percent inhibition of volume ([1]; oral dose 25 mg/kg): -19.5%
- Percent inhibition of pepsin ([1]; oral dose 25 mg/kg, negative sign means stimulated): 17.2%
- Percent inhibition of acid output ([1]; oral dose 50 mg/kg): 68.2%
- Percent inhibition of acidity ([1]; oral dose 50 mg/kg): 67.1%
- Percent inhibition of volume ([1]; oral dose 50 mg/kg): 3.7%
- Percent inhibition of pepsin [1, 3]: 7.5%
- Percent inhibition of pepsin output [1, 3]: 9.1%
- Percent inhibition of acid output ([1]; oral dose 100 mg/kg): 64.4%
- Percent inhibition of acidity ([1]; oral dose 100 mg/kg): 71.7%
- Percent inhibition of pepsin output ([1]; oral dose 100 mg/kg): 1.8%
- Percent inhibition of volume ([1]; oral dose 100 mg/kg): -23.1%
- Percent inhibition of pepsin ([1]; oral dose 100 mg/kg, negative sign means stimulated): 20.9%
- % Inhibition of acid output ([2]; dose 10 mg/kg): 16.5%
- % Inhibition of acidity ([2]; dose 10 mg/kg): 7.7%
- % Inhibition of pepsin ([2]; dose 10 mg/kg): 29.7%
- % Inhibition of pepsin output ([2]; dose 10 mg/kg): 35.1%
- % Inhibition of volume ([2]; dose 10 mg/kg): 9.2%
- % Inhibition of acid output ([2]; dose 20 mg/kg): 17.9%
- % Inhibition of acidity ([2]; dose 20 mg/kg): 26.2%
- % Inhibition of pepsin ([2]; dose 20 mg/kg): 48.0%
- % Inhibition of pepsin output ([2]; dose 20 mg/kg): 41.2%
- % Inhibition of volume ([2]; dose 20 mg/kg): -12.6%

Compound: CCCCCC(C)C(C)c1cc(O)c(C2CCNCC2)c(O)c1 (stereo not shown) [Example XVI, 2-(4-Piperidino)-5-(1,2-dimethylheptyl) resorcinol hydrochloride]
- inhibition in vivo at 50 mg/kg ([1]; oral dose 50 mg/kg, negative sign means stimulated, read-out: Percent inhibition of pepsin): 45.1%
- inhibition in vivo at 50 mg/kg ([1]; oral dose 50 mg/kg, negative sign means stimulated, read-out: Percent inhibition of pepsin output): 40.3%
- inhibition in vivo at 50 mg/kg ([1]; oral dose 50 mg/kg, read-out: Percent inhibition of acid output): 46.6%
- inhibition in vivo at 50 mg/kg ([1]; oral dose 50 mg/kg, read-out: Percent inhibition of acidity): 50.7%
- inhibition in vivo at 50 mg/kg ([1]; oral dose 50 mg/kg, read-out: Percent inhibition of volume): -8.6%
- % Inhibition of acid output ([2]; dose 10 mg/kg): 20.3%
- % Inhibition of acidity ([2]; dose 10 mg/kg): 20.9%
- % Inhibition of pepsin ([2]; dose 10 mg/kg): 39.7%
- % Inhibition of pepsin output ([2]; dose 10 mg/kg): 39.1%
- % Inhibition of volume ([2]; dose 10 mg/kg): -0.2%
